Measured values from patent publication US7404943B2, “Methods for solubilizing and recovering fluorinated compounds” (The Regents of the University of California, priority 2001, dated 2008).

Test: Visual observation of solubility in organic solvent with and without CO2 pressure (windowed vessel)
Type: physicochemical
Details: 35° C.; for solubility in cyclohexane / solubility in CO2-expanded cyclohexane: 64 mg in 5 mL cyclohexane; for solubility in cyclohexane: 1 atm CO2, visual; for solubility in CO2-expanded cyclohexane: CO2 pressure 59 bar
Protocol: The bis(methanol) adduct of complex 2 (Rh2(O2C(CF2)9F)4(MeOH)2, 64 mg) was placed in a windowed vessel along with a stir bar and 5 mL of cyclohexane, all at 35° C. […] The CO2 under these conditions is not supercritical and in the absence of the cyclohexane would not be liquid. […] When the CO2 pressure was released (slowly, so that the solvent was not lost by entrainment), then the liquid phase returned to its original volume and colour and the complex precipitated. The IR spectrum of the solid was identical to that of the original Rh2(O2C(CF2)9F)4(MeOH)2.
The IR spectrum of the complex after precipitation is identical to that of the starting material. […] For example, complex 3 was insoluble in toluene at 26° C., dissolved in CO2-expanded toluene at 54 bar CO2 and was subsequently precipitated after CO2 release.

[1] = listed as Rh2(O2C(CF2)9F)4(MeOH)2

Structure (SMILES): CO.CO.O=C([O-])C(F)(F)C(F)(F)C(F)(F)C(F)(F)C(F)(F)C(F)(F)C(F)(F)C(F)(F)C(F)(F)F.O=C([O-])C(F)(F)C(F)(F)C(F)(F)C(F)(F)C(F)(F)C(F)(F)C(F)(F)C(F)(F)C(F)(F)F.O=C([O-])C(F)(F)C(F)(F)C(F)(F)C(F)(F)C(F)(F)C(F)(F)C(F)(F)C(F)(F)C(F)(F)F.O=C([O-])C(F)(F)C(F)(F)C(F)(F)C(F)(F)C(F)(F)C(F)(F)C(F)(F)C(F)(F)C(F)(F)F.[Rh+3].[Rh+3] [bis(methanol) adduct of complex 2, Rh2(O2C(CF2)9F)4(MeOH)2]
- solubility in cyclohexane: completely insoluble
- solubility in cyclohexane [1]: insoluble
- solubility in CO2-expanded cyclohexane: complete dissolution
- solubility in CO2-expanded cyclohexane [1]: dissolves readily
- solubility in gaseous CO2 (upper phase) (59 bar CO2, upper gaseous phase showed no discoloration): no solubility
